From ChEMBL document CHEMBL1121457, “Long-acting opiate agonists and antagonists: 14-hydroxydihydromorphinone hydrazones” (1980)

Legend:
Mus musculus = organism: Mus musculus; assay: Percent analgesia of compound was measured in mice by using tail-flick assay; type: functional
Rattus norvegicus [1] = organism: Rattus norvegicus; assay: The compound was tested in vitro for the inhibition of [3H]naltrexone in rat brain homogenates in the presence of standard at 10 nM dose.; type: functional
Rattus norvegicus [2] = organism: Rattus norvegicus; assay: The compound was tested in vitro for the inhibition of [3H]-Naltrexone in rat brain homogenates in the presence of NaCl at 10 nM dose.; type: functional
Rattus norvegicus [3] = organism: Rattus norvegicus; assay: The compound was tested in vitro for the inhibition of [3H]naltrexone in rat brain homogenates in the presence of MnCl2 at 10 nM dose
Rattus norvegicus [4] = organism: Rattus norvegicus; assay: Percent decrease in activity for the inhibition of [3H]naltrexone in rat brain homogenates in the presence of NaCl at dose of 10 nM compared with that of control (6070+/-75 cpm).; type: functional
Rattus norvegicus [5] = organism: Rattus norvegicus; assay: Percent decrease in activity for the inhibition of [3H]-Naltrexone in rat brain homogenates in the presence of standard at dose of 10 nM compared with that of control (4930+/-143 cpm).; type: functional
Rattus norvegicus [6] = organism: Rattus norvegicus; assay: Percent decrease in activity for the inhibition of [3H]naltrexone in rat brain homogenates in the presence of MnCl2 at dose of 10 nM compared with that of control (4080+/-138 cpm).; type: functional
Rattus norvegicus [7] = organism: Rattus norvegicus; assay: Percent decrease in activity for the inhibition of [3H]naltrexone in rat brain homogenates in the presence of NaCl at dose of 4 nM compared with that of control (6070+/-75 cpm).; type: functional
Rattus norvegicus [8] = organism: Rattus norvegicus; assay: Percent decrease in activity for the inhibition of [3H]naltrexone in rat brain homogenates in the presence of NaCl and MnCl2 at dose of 4 nM compared with that of control (5840+/-72 cpm).; type: functional
Rattus norvegicus [9] = organism: Rattus norvegicus; assay: The compound was tested in vitro for the inhibition of [3H]-Naltrexone in rat brain homogenates in the presence of MnCl2 at 4 nM dose.; type: functional
Rattus norvegicus [10] = organism: Rattus norvegicus; assay: The compound was tested in vitro for the inhibition of [3H]-Naltrexone in rat brain homogenates in the presence of MnCl2 at 10 nM dose.; type: functional
Rattus norvegicus [11] = organism: Rattus norvegicus; assay: Percent decrease in activity for the inhibition of [3H]naltrexone in rat brain homogenates in the presence of MnCl2 at dose of 4 nM compared with that of control (4080+/-138 cpm).; type: functional
Rattus norvegicus [12] = organism: Rattus norvegicus; assay: The compound was tested in vitro for the inhibition of [3H]naltrexone in rat brain homogenates in the presence of standard at 4 nM dose.; type: functional
Rattus norvegicus [13] = organism: Rattus norvegicus; assay: Percent decrease in activity for the inhibition of [3H]naltrexone in rat brain homogenates in the presence of standard at dose of 4 nM compared with that of control (4930+/-143 cpm).; type: functional
Rattus norvegicus [14] = organism: Rattus norvegicus; assay: The compound was tested in vitro for the inhibition of [3H]naltrexone in rat brain homogenates in the presence of NaCl and MnCl2 at 10 nM dose.; type: functional, organism-based
Rattus norvegicus [15] = organism: Rattus norvegicus; assay: Percent decrease in activity for the inhibition of [3H]naltrexone in rat brain homogenates in the presence of NaCl and MnCl2 at dose of 10 nM compared with that of control (5840+/-72 cpm).; type: functional
Rattus norvegicus [16] = organism: Rattus norvegicus; assay: The compound was tested in vitro for the inhibition of [3H]naltrexone in rat brain homogenates in the presence of NaCl and MnCl2 at 4 nM dose.; type: functional, organism-based

| Compound | Analgesia (Mus musculus) [%] | Binding activity (Rattus norvegicus [1]) [c.p.m.] | Binding activity (Rattus norvegicus [2]) [c.p.m.] | Decrease (Rattus norvegicus [4]) [%] | Decrease (Rattus norvegicus [5]) [%] | Decrease (Rattus norvegicus [6]) [%] | Decrease (Rattus norvegicus [7]) [%] | Binding activity (Rattus norvegicus [12]) [c.p.m.] | Decrease (Rattus norvegicus [13]) [%] | Binding activity (Rattus norvegicus [14]) [c.p.m.] | Decrease (Rattus norvegicus [15]) [%] | also measured |
| --- | --- | --- | --- | --- | --- | --- | --- | --- | --- | --- | --- | --- |
| C=CCN1CC[C@]23c4c5ccc(O)c4O[C@H]2/C(=N\N)CC[C@@]3(O)[C@H]1C5 [NALOXAZONE] | 0 | 4400 | 4640 | 24 | 11 | 23 | – | – | – | – | – | Binding activity (Rattus norvegicus [3]): 3140 c.p.m. |
| C=CCN1CC[C@]23c4c5ccc(O)c4O[C@H]2C(=O)CC[C@@]3(O)[C@H]1C5 [NALOXONE] | 54 | – | – | – | – | – | – | – | – | – | – | – |
| N/N=C1/CC[C@@]2(O)[C@H]3Cc4ccc(O)c5c4[C@@]2(CCN3CC2CC2)[C@H]1O5 [NALTREXAZONE] | 0 | 1910 | 2200 | 64 | 61 | 62 | 39 | 2980 | 39 | 2240 | 62 | Decrease (Rattus norvegicus [8]): 40%; Binding activity (Rattus norvegicus [9]): 2570 c.p.m.; Binding activity (Rattus norvegicus [10]): 1550 c.p.m.; Decrease (Rattus norvegicus [11]): 38%; Binding activity (Rattus norvegicus [16]): 3480 c.p.m. |
| O=C1CC[C@@]2(O)[C@H]3Cc4ccc(O)c5c4[C@@]2(CCN3CC2CC2)[C@H]1O5 [NALTREXONE] | 67 | – | – | – | – | – | – | – | – | – | – | – |
| CN1CC[C@]23c4c5ccc(O)c4O[C@H]2/C(=N\N)CC[C@@]3(O)[C@H]1C5 [OXYMORPHAZONE] | 82 | 3750 | 5520 | – | 24 | – | 5 | 4860 | 2 | 4560 | 22 | – |
| CN1CC[C@]23c4c5ccc(O)c4O[C@H]2C(=O)CC[C@@]3(O)[C@H]1C5 [OXYMORPHONE] | 17 | – | – | – | – | – | – | – | – | – | – | – |
